Experimental data reported in PubChem BioAssay AID1259407 (Chemical Carcinogenesis Research Information System (CCRIS), 2018).
Active and inactive are the calls of the source. How the calls were made is not given here.

Test system: CCRIS mutagenicity, Ames/micronucleus/aberration tests
Assay: CCRIS mutagenicity studies

SMILES: C=CC(=O)O
- mutagenic call (Test System: AMES SALMONELLA TYPHIMURIUM, Strain/Indicator: TA97, Metabolic Activation: NONE, Method: PREINCUBATION): inactive; negative
- mutagenic call (Test System: AMES SALMONELLA TYPHIMURIUM, Strain/Indicator: TA97, Metabolic Activation: S-9, Method: PREINCUBATION): inactive; negative
- mutagenic call (Test System: AMES SALMONELLA TYPHIMURIUM, Strain/Indicator: TA98, Metabolic Activation: HAMSTER, LIVER, S-9, AROCLOR 1254 (10%), Method: PREINCUBATION): inactive; negative
- mutagenic call (Test System: AMES SALMONELLA TYPHIMURIUM, Strain/Indicator: TA98, Metabolic Activation: HAMSTER, LIVER, S-9, AROCLOR 1254, Method: STANDARD PLATE): inactive; negative
- mutagenic call (Test System: AMES SALMONELLA TYPHIMURIUM, Strain/Indicator: TA98, Metabolic Activation: NONE, Method: PREINCUBATION): inactive; negative
- mutagenic call (Test System: AMES SALMONELLA TYPHIMURIUM, Strain/Indicator: TA98, Metabolic Activation: NONE, Method: STANDARD PLATE): inactive; negative
- mutagenic call (Test System: AMES SALMONELLA TYPHIMURIUM, Strain/Indicator: TA98, Metabolic Activation: RAT LIVER S-9, PHENOBARBITAL AND BETA-NAPHTHOFLAVONE, Method: PREINCUBATION): inactive; negative
- mutagenic call (Test System: AMES SALMONELLA TYPHIMURIUM, Strain/Indicator: TA98, Metabolic Activation: RAT, LIVER, S-9, AROCLOR 1254 (10%), Method: PREINCUBATION): inactive; negative
- mutagenic call (Test System: AMES SALMONELLA TYPHIMURIUM, Strain/Indicator: TA98, Metabolic Activation: RAT, LIVER, S-9, AROCLOR 1254, Method: STANDARD PLATE): inactive; negative
- mutagenic call (Test System: AMES SALMONELLA TYPHIMURIUM, Strain/Indicator: TA98, Metabolic Activation: RAT, LIVER, S-9, AROCLOR, Method: STANDARD PLATE): inactive; negative
- mutagenic call (Test System: AMES SALMONELLA TYPHIMURIUM, Strain/Indicator: TA100, Metabolic Activation: HAMSTER, LIVER, S-9, AROCLOR 1254 (10%), Method: PREINCUBATION): inactive; negative
- mutagenic call (Test System: AMES SALMONELLA TYPHIMURIUM, Strain/Indicator: TA100, Metabolic Activation: HAMSTER, LIVER, S-9, AROCLOR 1254, Method: STANDARD PLATE): inactive; negative
- mutagenic call (Test System: AMES SALMONELLA TYPHIMURIUM, Strain/Indicator: TA100, Metabolic Activation: NONE, Method: PREINCUBATION): inactive; negative
- mutagenic call (Test System: AMES SALMONELLA TYPHIMURIUM, Strain/Indicator: TA100, Metabolic Activation: NONE, Method: STANDARD PLATE): inactive; negative
- mutagenic call (Test System: AMES SALMONELLA TYPHIMURIUM, Strain/Indicator: TA100, Metabolic Activation: RAT LIVER S-9, PHENOBARBITAL AND BETA-NAPHTHOFLAVONE, Method: PREINCUBATION): inactive; negative
- mutagenic call (Test System: AMES SALMONELLA TYPHIMURIUM, Strain/Indicator: TA100, Metabolic Activation: RAT, LIVER, S-9, AROCLOR 1254 (10%), Method: PREINCUBATION): inactive; negative
- mutagenic call (Test System: AMES SALMONELLA TYPHIMURIUM, Strain/Indicator: TA100, Metabolic Activation: RAT, LIVER, S-9, AROCLOR 1254, Method: STANDARD PLATE): inactive; negative
- mutagenic call (Test System: AMES SALMONELLA TYPHIMURIUM, Strain/Indicator: TA100, Metabolic Activation: RAT, LIVER, S-9, AROCLOR, Method: STANDARD PLATE): inactive; negative
- mutagenic call (Test System: AMES SALMONELLA TYPHIMURIUM, Strain/Indicator: TA102, Metabolic Activation: NONE, Method: PREINCUBATION): inactive; negative
- mutagenic call (Test System: AMES SALMONELLA TYPHIMURIUM, Strain/Indicator: TA102, Metabolic Activation: RAT LIVER S-9, PHENOBARBITAL AND BETA-NAPHTHOFLAVONE, Method: PREINCUBATION): inactive; negative
- mutagenic call (Test System: AMES SALMONELLA TYPHIMURIUM, Strain/Indicator: TA102, Metabolic Activation: S-9, Method: PREINCUBATION): inactive; negative
- mutagenic call (Test System: AMES SALMONELLA TYPHIMURIUM, Strain/Indicator: TA104, Metabolic Activation: NONE, Method: PREINCUBATION): inactive; negative
- mutagenic call (Test System: AMES SALMONELLA TYPHIMURIUM, Strain/Indicator: TA104, Metabolic Activation: RAT LIVER S-9, PHENOBARBITAL AND BETA-NAPHTHOFLAVONE, Method: PREINCUBATION): inactive; negative
- mutagenic call (Test System: AMES SALMONELLA TYPHIMURIUM, Strain/Indicator: TA1535, Metabolic Activation: HAMSTER, LIVER, S-9, AROCLOR 1254 (10%), Method: PREINCUBATION): inactive; negative
- mutagenic call (Test System: AMES SALMONELLA TYPHIMURIUM, Strain/Indicator: TA1535, Metabolic Activation: HAMSTER, LIVER, S-9, AROCLOR 1254, Method: STANDARD PLATE): inactive; negative
- mutagenic call (Test System: AMES SALMONELLA TYPHIMURIUM, Strain/Indicator: TA1535, Metabolic Activation: NONE, Method: PREINCUBATION): inactive; negative
- mutagenic call (Test System: AMES SALMONELLA TYPHIMURIUM, Strain/Indicator: TA1535, Metabolic Activation: NONE, Method: STANDARD PLATE): inactive; negative
- mutagenic call (Test System: AMES SALMONELLA TYPHIMURIUM, Strain/Indicator: TA1535, Metabolic Activation: RAT LIVER S-9, PHENOBARBITAL AND BETA-NAPHTHOFLAVONE, Method: PREINCUBATION): inactive; negative
- mutagenic call (Test System: AMES SALMONELLA TYPHIMURIUM, Strain/Indicator: TA1535, Metabolic Activation: RAT, LIVER, S-9, AROCLOR 1254 (10%), Method: PREINCUBATION): inactive; negative
- mutagenic call (Test System: AMES SALMONELLA TYPHIMURIUM, Strain/Indicator: TA1535, Metabolic Activation: RAT, LIVER, S-9, AROCLOR 1254, Method: STANDARD PLATE): inactive; negative
- mutagenic call (Test System: AMES SALMONELLA TYPHIMURIUM, Strain/Indicator: TA1535, Metabolic Activation: RAT, LIVER, S-9, AROCLOR, Method: STANDARD PLATE): inactive; negative
- mutagenic call (Test System: AMES SALMONELLA TYPHIMURIUM, Strain/Indicator: TA1537, Metabolic Activation: HAMSTER, LIVER, S-9, AROCLOR 1254 (10%), Method: PREINCUBATION): inactive; negative
- mutagenic call (Test System: AMES SALMONELLA TYPHIMURIUM, Strain/Indicator: TA1537, Metabolic Activation: HAMSTER, LIVER, S-9, AROCLOR 1254, Method: STANDARD PLATE): inactive; negative
- mutagenic call (Test System: AMES SALMONELLA TYPHIMURIUM, Strain/Indicator: TA1537, Metabolic Activation: NONE, Method: PREINCUBATION): inactive; negative
- mutagenic call (Test System: AMES SALMONELLA TYPHIMURIUM, Strain/Indicator: TA1537, Metabolic Activation: NONE, Method: STANDARD PLATE): inactive; negative
- mutagenic call (Test System: AMES SALMONELLA TYPHIMURIUM, Strain/Indicator: TA1537, Metabolic Activation: RAT LIVER S-9, PHENOBARBITAL AND BETA-NAPHTHOFLAVONE, Method: PREINCUBATION): inactive; negative
- mutagenic call (Test System: AMES SALMONELLA TYPHIMURIUM, Strain/Indicator: TA1537, Metabolic Activation: RAT, LIVER, S-9, AROCLOR 1254 (10%), Method: PREINCUBATION): inactive; negative
- mutagenic call (Test System: AMES SALMONELLA TYPHIMURIUM, Strain/Indicator: TA1537, Metabolic Activation: RAT, LIVER, S-9, AROCLOR 1254, Method: STANDARD PLATE): inactive; negative
- mutagenic call (Test System: AMES SALMONELLA TYPHIMURIUM, Strain/Indicator: TA1537, Metabolic Activation: RAT, LIVER, S-9, AROCLOR, Method: STANDARD PLATE): inactive; negative
- mutagenic call (Test System: AMES SALMONELLA TYPHIMURIUM, Strain/Indicator: TA1538, Metabolic Activation: HAMSTER, LIVER, S-9, AROCLOR 1254, Method: STANDARD PLATE): inactive; negative
- mutagenic call (Test System: AMES SALMONELLA TYPHIMURIUM, Strain/Indicator: TA1538, Metabolic Activation: NONE, Method: STANDARD PLATE): inactive; negative
- mutagenic call (Test System: AMES SALMONELLA TYPHIMURIUM, Strain/Indicator: TA1538, Metabolic Activation: RAT, LIVER, S-9, AROCLOR 1254, Method: STANDARD PLATE): inactive; negative
- mutagenic call (Test System: AMES SALMONELLA TYPHIMURIUM, Strain/Indicator: TA1538, Metabolic Activation: RAT, LIVER, S-9, AROCLOR, Method: STANDARD PLATE): inactive; negative
- mutagenic call (Test System: CHINESE HAMSTER OVARY, Strain/Indicator: CHO-K1-BH4 (HGPRT), Metabolic Activation: NONE): inactive; negative
- mutagenic call (Test System: CHINESE HAMSTER OVARY, Strain/Indicator: CHO-K1-BH4 (HGPRT), Metabolic Activation: RAT, LIVER, S-9, AROCLOR 1254): inactive; negative
- mutagenic call (Test System: E.COLI, Strain/Indicator: WP2UVRA/PKM101, Metabolic Activation: NONE, Method: PREINCUBATION): inactive; negative
- mutagenic call (Test System: E.COLI, Strain/Indicator: WP2UVRA/PKM101, Metabolic Activation: RAT LIVER S-9, PHENOBARBITAL AND BETA-NAPHTHOFLAVONE, Method: PREINCUBATION): inactive; negative
- mutagenic call (Test System: E.COLI, Strain/Indicator: WP2UVRA, Metabolic Activation: NONE, Method: PREINCUBATION): inactive; negative
- mutagenic call (Test System: E.COLI, Strain/Indicator: WP2UVRA, Metabolic Activation: RAT LIVER S-9, PHENOBARBITAL AND BETA-NAPHTHOFLAVONE, Method: PREINCUBATION): inactive; negative
- mutagenic call (Test System: MOUSE LYMPHOMA, Strain/Indicator: L5178Y (TK+/TK-), Metabolic Activation: RAT, LIVER, S-9, AROCLOR 1254, Method: SUSPENSION /PLATE): active; positive
- mutagenic call (Test System: MOUSE LYMPHOMA, Strain/Indicator: L5178Y (TK+/TK-), Metabolic Activation: RAT, LIVER, S-9, AROCLOR 1254, Method: SUSPENSION/PLATE): active; positive. reevaluation of results: positive
- mutagenic call (Test System: MOUSE LYMPHOMA, Strain/Indicator: L5178Y (TK+/TK-), Metabolic Activation: RAT, LIVER, S-9, AROCLOR, Method: SUSPENSION/PLATE): inactive; negative
- mutagenic call (Test System: UDS RAT HEPATOCYTES, Strain/Indicator: THY INCORP, Metabolic Activation: NONE, Method: AUTORADIOGRAPHY): inactive; negative
- mutagenic call (Test System: UDS RODENT CELLS, Strain/Indicator: SHE CELL-MEDIATED, Metabolic Activation: NONE, Method: LIQUID SCINTILLATION COUNTING (THYMIDINE INCORPORATION)): inactive; negative
- mutagenic call (Test System: UDS RODENT HEPATOCYTES, Strain/Indicator: THY INCORP (NON-S-PHASE), Metabolic Activation: NONE, Method: AUTORADIOGRAPHY): inactive; negative
